Data published in article PMC4191062, “Development of αGlcN(1↔1)αMan-Based Lipid A Mimetics as a Novel Class of Potent Toll-like Receptor 4 Agonists” (Journal of Medicinal Chemistry, 2014).

Tested on: THP-1 cells
Assay: Cytokine expression (TNF-α, IL-8, MCP-1; ELISA) in TPA-differentiated THP-1 macrophage-like cells
Assay type: cell-based, human
Conditions: for activation of the MyD88 signaling pathway compared to Re-LPS/LPS: THP-1; for potency in induction of expression of IL-8 compared to Re-LPS/LPS / potency in induction of expression of TNF-α compared to Re-LPS/LPS: dose-dependent
Experimental: Lipid A mimetics 1–3 were examined for the ability to initiate the expression of tumor necrosis factor-α (TNF-α), interleukin-8 (IL-8), and monocyte chemotactic protein-1 (MCP-1) in the human monocytic macrophage-like cell line THP-1, which expresses MD-2, CD14, and a variety of cell surface receptors, including TLR4.
THP-1 cells were grown in RPMI-1640 cell-culture medium (Life Technologies) that was supplemented with 2 mM L-glutamine, 100 U/mL penicillin, 100 μg/mL streptomycin, and 10% FCS. Cells were seeded in a 96-well plate at 10^5 cells/well in 150 μL of complete medium and stimulated by 200 nM TPA for 24 h to induce the differentiation into macrophage-like cells.[59] […] Cells were stimulated with α,α-GM-LAMs 1–3 at the indicated concentration and with E. coliRe-LPS (or E. coli O111:B4 LPS), which were added as solutions in 10 μL of complete medium. The total volume of the well after stimulation reached 220 μL. The cells were incubated for 18 h, and the supernatants were analyzed for TNF-α, IL-8, and MCP-1 by ELISA (BD Biosciences).
Supplementary SI-Figure 2
E. coli wild type O111:B4 LPS is a large heterogeneous molecule with molecular weight (MW) comprising 10-15 kDa. Since we were particularly interested in the molecular recognition mechanisms implicated in the binding of LPS by the MD-2∙TLR4 complex wherein the Lipid A/Re-LPS (MW 1.8/2.2 kDa, respectively) portion of LPS is mostly involved, we have analyzed the dose-dependent THP-1 cells activation by synthetic α,α-GM-LAM 1-3 (at the concentrations 0.1 – 300 ng/ml) compared to E. coli Re-LPS which is more appropriate in this instance. Since the divergences in the expression of different cytokines by E. coli LPS vs. Re-LPS are only scarcely reported in the literature, we have performed dose-dependent activation experiments comparing expression of TNF-α, IL-8 and MCP-1 by E. coli O111:B4 LPS and E. coli Re-LPS at the concentrations 0.4 – 100 nM. Wild-type LPS (MW 10 […]
range (0.4 – 10 nM), whereas at the concentrations above 10 nM (50 nM for MCP-1) the levels of cytokines […]
This might be explained by a different aggregation state of Re-LPS and wild type LPS, and, therefore, the alterations in the transfer of a single LPS molecule to TLR4∙MD-2 complex by LBP and CD-14. Higher MW (> 10 kDa) of the LPS molecule applied for the calculations of the concentrations in [nM] would result in the shift of the activation profile induced by wild-type LPS. Calculation of EC50 values were hardly possible, since the maximum TLR4 saturation levels were not achieved at the concentrations tested.
SI-Figure 2. Dose-dependent expression of pro-inflammatory cytokines TNF-α, IL-8 and MCP-1 in human macrophage cell line THP-1 by E. coli Re-LPS compared to E. coli wild-type O111:B4 LPS. (A) Comparative expression of TNF-a; (B) comparative expression of IL-8; (C) comparative expression of MCP-1 […]
(1 picture or pasted object on this page, not shown here)
Supplementary SI-Figure 3
Dose-dependent responses (THP-1 cells: α,α-GM-LAM 1-3 and Re-LPS) at the concentration range 0.4 – 100 ng/ml which are presented in the Figure 5, were extended to the higher concentration range (up to 300 ng/ml).
SI-Figure 3. Dose-dependent expression of cytokines induced by α,α-GM-LAM 1-3 in macrophage cell line THP-1 compared to E. coli Re-LPS at the concentration range 0.4 – 300 ng/ml. (A) Production of TNF-α; (B) Induction of […]
Supplementary SI-Figure 4
Lipid A mimetic 1 was examined for the activation of NF-κB (Nuclear factor kappaB) and IRF3
(Interferon regulatory factor 3). IRF3 activation […]
noticeable after 1h stimulation, though was
LPS. At 1h stimulation the α,α-GM-LAM 1 was […]
whereas at 3h simulation compound 1 (at a […]
stronger phosphorylation of IκBa (P-IκBa levels) as well as the higher levels of IκBa (reflecting the NF-κB dependent re-synthesis of IκB following its
Thus, IRF3 activation and NF-κB activation […]
degradation and its NF-κB dependent resynthesis) […]
compared to LPS after 3h stimulation. […]

Row | SMILES | activation of the MyD88 signaling pathway compared to Re-LPS/LPS | potency in induction of expression of IL-8 compared to Re-LPS/LPS (THP-1, 18 h) | potency in induction of expression of TNF-α compared to Re-LPS/LPS (THP-1, 18 h) | release of MCP-1 compared to Re-LPS and compound 1 (THP-1, 18 h) | induction of the expression of cytokines (THP-1, TNF-α, IL-8, MCP-1)
1 | CCCCCCCCCCCCCC(=O)O[C@H](CCCCCCCCCCC)CC(=O)O[C@@H]1[C@@H](NC(=O)C[C@@H](CCCCCCCCCCC)OC(=O)CCCCCCCCCCC)[C@@H](O[C@H]2O[C@H](COP(=O)(O)O)[C@@H](OC(=O)C[C@@H](CCCCCCCCCCC)OC(=O)CCCCCCCCCCC)[C@H](O)[C@@H]2OC)O[C@H](CO)[C@H]1OP(=O)(O)O [Compound 1, 4-O-[(R)-3-(Dodecanoyloxy)tetradecanoyl]-2-O-methyl-6-O-phosphoryl-α-D-mannopyranosyl-(1↔1)-2-deoxy-2-[(R)-3-(dodecanoyloxy)tetradecanoylamino]-4-O-phosphoryl-3-O-[(R)-3-(tetradecanoyloxy)tetradecanoyl]-α-D-glucopyranoside] | more potent activators | higher potency | higher potency | – | –
2 | CCCCCCCCCCCCCC(=O)O[C@H](CCCCCCCCCCC)CC(=O)O[C@@H]1[C@@H](NC(=O)C[C@@H](CCCCCCCCCCC)OC(=O)CCCCCCCCCCC)[C@@H](O[C@H]2O[C@H](COP(=O)(O)O)[C@@H](OC(=O)C[C@@H](CCCCCCCCCCC)OC(=O)CCCCCCCCC)[C@H](O)[C@@H]2OC)O[C@H](CO)[C@H]1OP(=O)(O)O [Compound 2, 4-O-[(R)-3-(Decanoyloxy)tetradecanoyl]-2-O-methyl-6-O-phosphoryl-α-mannopyranosyl-(1↔1)-2-deoxy-2-[(R)-3-(dodecanoyloxy)tetradecanoylamino]-4-O-phosphoryl-3-O-[(R)-3-(tetradecanoyloxy)tetradecanoyl]-α-D-glucopyranoside] | more potent activators | higher potency | higher potency | clearly more effective | –
3 | CCCCCCCCCCCCCC(=O)O[C@H](CCCCCCCCCCC)CC(=O)O[C@@H]1[C@@H](NC(=O)C[C@@H](CCCCCCCCCCC)OC(=O)CCCCCCCCCCC)[C@@H](O[C@H]2O[C@H](CO)[C@@H](OC(=O)C[C@@H](CCCCCCCCCCC)OC(=O)CCCCCCCCCCC)[C@H](O)[C@@H]2OC)O[C@H](CO)[C@H]1OP(=O)(O)O [Compound 3, 4-O-[(R)-3-(Dodecanoyloxy)tetradecanoyl]-2-O-methyl-α-D-mannopyranosyl-(1↔1)-2-deoxy-2-[(R)-3-(dodecanoyloxy)tetradecanoylamino]-4-O-phosphoryl-3-O-[(R)-3-(tetradecanoyloxy)tetradecanoyl]-α-D-glucopyranoside] | – | – | – | – | dampened induction
